US10323021B2, “Triazoles as NR2B receptor inhibitors” (Janssen Pharmaceuticals, Inc., priority 2014, dated 2019)

Tested on: mice (forced swim test, model of depression)
Experiment: Forced swim test in mice
Type: in vivo, mouse
Settings: p.o., 30 minutes before the test, male NMRI mice
Description: The compounds of the invention show significant antidepressive effects in the forced swim test in mice, an animal model of depression at doses of 100 mg/kg or below.
The method, which detects antidepressant activity, follows that described by Porsolt et al (Arch. Int. Pharmacodyn., 229, 327-336, 1977), which is incorporated by reference herein in its entirety.
Mice forced to swim in a situation from which they cannot escape rapidly become immobile. Antidepressants decrease the duration of immobility.
Male NMRI mice (Janvier, France), weighing 20-30 g, were individually placed in a cylinder (height=24 cm; diameter=13 cm) containing 10 cm water (22° C.) from which they cannot escape.
The mice were placed in the water for 6 minutes and the duration of immobility during the last 4 minutes was measured. The latency to the first bout of immobility was also recorded starting from the beginning of the test. 10 mice were studied per group. The test substance was administered p.o. 30 minutes before the test and compared with vehicle control group. The test was performed blind.

SMILES	Minimum effective dose [mg/kg]
OCCc1nccn1Cc1cn(-c2ccc(F)c(OC(F)F)c2)nn1 [Example 101, 1-(3-Difluoromethoxy-4-fluoro-phenyl)-4-[2-(2-hydroxy-ethyl)-imidazol-1-ylmethyl]-1H-[1,2,3]triazole]	>30
Fc1ccc(-n2cc(Cn3ccnc3C3CC3)nn2)cc1C(F)F [Example 82, 4-(2-Cyclopropyl-imidazol-1-ylmethyl)-1-(3-difluoromethyl-4-fluoro-phenyl)-1H-[1,2,3]triazole]	60
